Measurements published in patent US8679514B2, “Fungicidal mixtures based on azolopyrimidinylamines” (BASF SE, priority 2005, dated 2014).
Read-outs that look alike come from different tables or passages of the source.

Key:
Plasmopara viticola [1] = test: whole plant or invertebrate; assay type: in vivo; conditions: read-out: Observed activity (%)
Phytophthora infestans [2] = test: whole plant or invertebrate; assay type: in vivo; conditions: for Observed activity (%): in vivo
Plasmopara viticola [3] = test: whole plant or invertebrate; assay type: in vivo; conditions: read-out: Observed activity (%); remark: listed apart in the source
Phytophthora infestans [4] = test: microbe, parasite or virus in culture; assay type: cell-based; conditions: for inhibition at 0.016 µg/mL / inhibition at 0.25 µg/mL / inhibition at 1 µg/mL / inhibition at […]: Phytophthora infestans, read-out: Observed activity (%)
Botrytis cinerea = test: Activity against the gray mold pathogen Botrytis cinerea in the microtiter test; assay type: cell-based; conditions: Botrytis cinerea, single active compound, read-out: Observed activity (%); for inhibition at […]: Conc. 0.063 mg/l; for inhibition at 0.25 µg/mL: Conc. 0.25 mg/l; for inhibition at 16 µg/mL: Conc. 16 mg/l
Pyricularia oryzae = test: microbe, parasite or virus in culture; assay type: cell-based; conditions: Pyricularia oryzae, read-out: Observed activity (%)
Phytophthora infestans [5] = test: whole plant or invertebrate; assay type: in vivo; conditions: 144 h, read-out: Efficacy in % of the untreated control
Septoria tritici = test: Activity against the speckled leaf blotch pathogen Septoria tritici in the microtiter test; assay type: cell-based; conditions: single active compound

With `CC1(c2ccc(Oc3ccccc3)cc2)OC(=O)N(Nc2ccccc2)C1=O` (racemic) [famoxadone, (RS)-3-anilino-5-methyl-5-(4-phenoxyphenyl)-1,3-oxazolidine-2,4-dione] as the compound, how does the inhibition at 4 µg/mL (Plasmopara viticola [1]) read?
Its inhibition at 4 µg/mL is 0%.

What does the source list for `CCCCCCCCc1c(CC)nc2ncnn2c1N` [Compound I-110, 5-ethyl-6-octyl-[1,2,4]triazolo[1,5-a]pyrimidin-7-ylamine]?
inhibition at 4 µg/mL (Phytophthora infestans [2]; Phytophthora infestans, read-out: Observed activity (%)): 11%; inhibition at 0.25 µg/mL (Plasmopara viticola [1]): 0%; inhibition at 4 µg/mL (Plasmopara viticola [1]): 0%; inhibition at 4 µg/mL (Plasmopara viticola [3]): 0%; inhibition at 0.016 µg/mL (Phytophthora infestans [4]): 1%; inhibition at 0.25 µg/mL (Phytophthora infestans [4]): 5%; inhibition at 1 µg/mL (Phytophthora infestans [4]): 59%; inhibition at […] (Phytophthora infestans [4]): 3%; inhibition at […] (Botrytis cinerea): 8%; inhibition at 0.25 µg/mL (Botrytis cinerea): 18%; inhibition at 16 µg/mL (Pyricularia oryzae): 8%

Which results are given for `CCCCCCCCc1c(CC)nc2nc(N)nn2c1N` [Compound I-120, 5-ethyl-6-octyl-[1,2,4]triazolo[1,5-a]pyrimidine-2,7-diamine]?
pest or weed control at 16 ppm (Phytophthora infestans [5]): 33%; inhibition at 0.016 µg/mL (Phytophthora infestans [4]): 0%; inhibition at 0.25 µg/mL (Phytophthora infestans [4]): 6%; inhibition at […] (Phytophthora infestans [4]): 2%; inhibition at […] (Botrytis cinerea): 0%; inhibition at 1 µg/mL (Botrytis cinerea; Conc. 1 mg/l): 9%; inhibition at 16 µg/mL (Botrytis cinerea): 15%; inhibition at 16 µg/mL (Pyricularia oryzae): 25%; inhibition at […] (Septoria tritici; Zymoseptoria tritici, 0.063 mg/l, read-out: Observed activity (%)): 0%

What does the source list for `CCCCCCCCc1c(CCC)nc2ncnn2c1N` [Compound I-180, 6-octyl-5-propyl-[1,2,4]triazolo[1,5-a]pyrimidin-7-ylamine]?
pest or weed control at 16 ppm (Phytophthora infestans [5]): 0%; pest or weed control at 63 ppm (Phytophthora infestans [5]): 33%; inhibition at 0.016 µg/mL (Phytophthora infestans [4]): 0%; inhibition at 0.25 µg/mL (Phytophthora infestans [4]): 8%; inhibition at 1 µg/mL (Phytophthora infestans [4]): 17%; inhibition at […] (Phytophthora infestans [4]): 2%; inhibition at 0.016 µg/mL (Botrytis cinerea; Conc. 0.016 mg/l): 3%; inhibition at 0.25 µg/mL (Botrytis cinerea): 13%; inhibition at 1 µg/mL (Pyricularia oryzae): 15%

Which results are given for `CCCCCCCCc1c(COC)nc2ncnn2c1N` [Compound I-245, 5-methoxymethyl-6-octyl-[1,2,4]triazolo[1,5-a]pyrimidin-7-ylamine]?
pest or weed control at 4 ppm (Phytophthora infestans [5]): 0%; inhibition at 0.016 µg/mL (Phytophthora infestans [4]): 0%; inhibition at 0.25 µg/mL (Phytophthora infestans [4]): 12%; inhibition at […] (Phytophthora infestans [4]): 0%; inhibition at 0.25 µg/mL (Botrytis cinerea): 0%; inhibition at 0.25 µg/mL (Pyricularia oryzae): 10%; inhibition at 16 µg/mL (Pyricularia oryzae): 23%

`[Cu+2].[OH-].[OH-]` [Cu(OH)2, copper hydroxide, reference compound] was tested. Which “Observed activity (%)” value (Phytophthora infestans [2]) did it give?
The value was 11%.

What about the “Observed activity (%)” value (Phytophthora infestans [4]) of the same compound?
Its value is 2%.

Which results are given for `COC(=O)NCc1cc(C(C)=NOCc2cccc(C)c2)ccc1Cl` [[B-6], methyl (2-chloro-5-[1-(3-methylbenzyloxyimino)-ethyl]benzyl)carbamate, reference compound]?
inhibition at 16 µg/mL (Plasmopara viticola [1]): 0%; inhibition at 0.25 µg/mL (Phytophthora infestans [4]): 10%; inhibition at 16 µg/mL (Botrytis cinerea): 53%

How did the inhibition at 0.25 µg/mL (Plasmopara viticola [1]) turn out when `COC(=O)CC(NC(=O)C(NC(=O)OC(C)C)C(C)C)c1ccc(Cl)cc1` (stereo not shown) [[E-7], methyl 3-(4-chlorophenyl)-3-(2-isopropoxycarbonylamino-3-methyl-butyrylamino)propanoate] was run?
The inhibition at 0.25 µg/mL was 0%.

Which inhibition at 4 µg/mL (Plasmopara viticola [1]) does the source give for `Cc1c(Br)c2ccc(F)cc2n1S(=O)(=O)c1ncn(S(=O)(=O)N(C)C)n1` [amidosulbrom, N,N-dimethyl-3-(3-bromo-6-fluoro-2-methylindole-1-sulfonyl)-[1,2,4]triazole-1-sulfonamide] here?
The inhibition at 4 µg/mL was 22%.

Which results are given for `CCNC(=O)NC(=O)C(C#N)=NOC` [cymoxanil, 1-(2-cyano-2-methoxyiminoacetyl)-3-ethylurea, reference compound]?
inhibition at 16 µg/mL (Plasmopara viticola [3]): 33%; inhibition at 16 µg/mL (Pyricularia oryzae): 12%

Which results are given for `COc1ccc(C(=CC(=O)N2CCOCC2)c2ccc(Cl)cc2)cc1OC` [dimethomorph, 3-(4-chlorophenyl)-3-(3,4-dimethoxyphenyl)-1-morpholin-4-ylpropenone, reference compound]?
pest or weed control at 4 ppm (Phytophthora infestans [5]): 33%; inhibition at 16 µg/mL (Plasmopara viticola [3]): 67%

With `N#Cc1sc2c(=O)c3ccccc3c(=O)c=2sc1C#N` [dithianon, 5,10-dioxo-5,10-dihydronaphtho[2,3-b][1,4]dithiin-2,3-dicarbonitrile] as the compound, how does the inhibition at 16 µg/mL (Plasmopara viticola [3]) read?
The inhibition at 16 µg/mL was 0%.

Which inhibition at 0.25 µg/mL (Plasmopara viticola [1]) does the source give for `CCNc1nc(CC)c(C(=O)NC(C#N)c2cccs2)s1` (stereo not shown) [ethaboxam, N-(cyano-2-thienylmethyl)-4-ethyl-2-(ethylamino)-5-thiazolcarboxamide] here?
Its inhibition at 0.25 µg/mL is 33%.

With `Cc1ccc(C(C)NC(=O)[C@@H](NC(=O)OC(C)C)C(C)C)cc1` (stereo partly drawn) [iprovalicarb, isopropyl [(1S)-2-methyl-1-(1-p-tolylethylcarbamoyl)propyl]carbamate] as the compound, how does the inhibition at 4 µg/mL (Plasmopara viticola [1]) read?
Its inhibition at 4 µg/mL is 0%.

How did the “Observed activity (%)” value (Septoria tritici; 0.25 mg/l) turn out when `CCC(=O)C1=C([O-])CC(C(=O)[O-])CC1=O.[Ca+2]` (stereo not shown) [prohexadione-Ca, reference compound] was run?
The value was 5%.

How did the “Observed activity (%)” value (Phytophthora infestans [2]) turn out when “manganese ethylenebis(dithiocarbanate) zinc complex [mancozeb]” was run?
The value was 11%.

What does the source list for “phosphorous acid disodium salt [phosphorous acid disodium salt (Na2HPO3), reference compound]”?
Observed activity (%) (Phytophthora infestans [2]): 33%; Observed activity (%) (Phytophthora infestans [4]): 6%
